These are literature values, as cited in PMC6966871 (Journal of Hematology & Oncology, 2020).

Like-named read-outs stand apart in the source and are kept apart here.

One data set has as its system METex14-altered NSCLC. On the set-up: method as in doi:10.1200/JCO.2016.34.15_suppl.108. The conditions noted are these: METex14-altered NSCLC patients; cited from earlier work.
On the set-up of data set [1]: method as in PMID 30718102. The conditions noted are these: cited from earlier work.
Details of data set [2]: method as in PMID 30724423. Conditions: cited from earlier work.
The next data set has as its system EGFR-mutant NSCLC. The arrangement: method as in PMID 30156984. Conditions: in combination with gefitinib, EGFR-mutant NSCLC progressed on previous gefitinib; cited from earlier work.

With `C[C@@H](Oc1cc(-c2cnn(C3CCNCC3)c2)cnc1N)c1c(Cl)ccc(F)c1Cl` [Crizotinib], the unconfirmed response rate entry with METex14-altered NSCLC is reported as “up to 44%”.
For `COc1cc2nccc(Oc3ccc(NC(=O)C4(C(=O)Nc5ccc(F)cc5)CC4)cc3)c2cc1OC` [cabozantinib], the “rate of discontinuation due to an AE” value in data set [1] (Japanese NSCLC patients, phase 1) is 10%. In data set [1], the “AE: diarrhea” value is 78%, the “AE: hypertension” value was 87%, the “AE: increased ALT” value is listed as 95% and the “AE: increased AST” value is listed as 95%. Further, in data set [1], the “AE: palmar-plantar erythrodysesthesia” value was 100% and the “patients who experienced ≥ grade 3 AEs” value was 70%. For the same molecule, in data set [1] (dose-escalation cohorts, about), the “patients with dose reduction” value was 30–40%. The patients with discontinuation in data set [1] (dose-escalation cohorts) is recorded as 13%.
On to `CNC(=O)c1ccc(-c2cnc3ncc(Cc4ccc5ncccc5c4)n3n2)cc1F` [capmatinib], for which the “patients with one or more dose interruptions” value in data set [2] (21 patients) is given as 47.7%. For the same molecule, in data set [2], the “AE: decreased appetite” value is 41%, the “AE: diarrhea” value is on record as 25%, the “AE: increased blood creatinine” value was 52% and the “AE: nausea” value is reported as 48. Further, in data set [2], the “AE: vomiting” value is 39%, the “AEs leading to discontinuation” value is listed as 9% and the “adverse events leading to dose adjustment and/or interruption” value is given as 59%. Moreover, the “patients with dose interruption only once” value in data set [2] (nine patients) is 20.5%. Also, in the data set with EGFR-mutant NSCLC, the “overall ORR” value is listed as 27%.
